In US11384054B2, “Crystalline form of ivacaftor and a process for preparing the same” (ScinoPharm Taiwan, Ltd., priority 2020, dated 2022) one finds solubility data, which are given here for one compound.

Converted amounts (≈) assume the structure as drawn. Like-named read-outs stand apart in the source and are kept apart here.

This data set is described as follows: Solubility test of ivacaftor in solvents and acetone/water mixtures at 25° C. It counts as physicochemical. The note with it: organic solvent or mixture. As to the method: “Solvent” refers to a liquid substance capable of dissolving ivacaftor at about 50° C. to about 60° C. The term “anti-solvent” refers to a liquid substance which is not capable of dissolving ivacaftor at about 20° C. to about 30° C. More particularly, solvents and anti-solvents suitable for crystalline forms of ivacaftor are selected by solubility test, such as the Tables 1A, […], and 1C below, taking into consideration of advantages provided by the convenience and efficiency of process operation, the use of more environmentally friendly solvents, mild crystallization conditions, and others.

Regarding `CC(C)(C)c1cc(C(C)(C)C)c(NC(=O)c2c[nH]c3ccccc3c2=O)cc1O` [ivacaftor], the solubility reads like this: (N,N-dimethylformamide, N,N-dimethylformamide, 25° C., read-out: Solubility) 109 mg/mL (≈ 277 mM); (acetone, Acetone, 25° C., read-out: Solubility) 27.9 mg/mL (≈ 71 mM); (acetone/water, 0% water in acetone, 25° C., read-out: Solubility in acetone/water) 27.9 mg/mL (≈ 71 mM); (acetone/water, 2% water in acetone, 25° C., read-out: Solubility in acetone/water) 27.9 mg/mL (≈ 71 mM); (acetone/water, 5% water in acetone, 25° C., read-out: Solubility in acetone/water) 41.4 mg/mL (≈ 106 mM); (acetone/water, 8% water in acetone, 25° C. (Table 1C), read-out: Solubility in acetone/water) 41.2 mg/mL (≈ 105 mM). Further, the solubility runs as follows: (acetone/water, 10% water in acetone, 25° C., read-out: Solubility in acetone/water) 47.1 mg/mL (≈ 120 mM); (acetone/water, 15% water in acetone, 25° C., read-out: Solubility in acetone/water) 43.3 mg/mL (≈ 110 mM); (acetone/water, 30% water in acetone, 25° C., read-out: Solubility in acetone/water) 11 mg/mL (≈ 28 mM); (acetone/water, 50% water in acetone, 25° C., read-out: Solubility in acetone/water) 0.34 mg/mL (≈ 0.866 mM); (acetonitrile, Acetonitrile, 25° C., read-out: Solubility) 1.78 mg/mL (≈ 4.54 mM); (cyclohexane, Cyclohexane, 25° C., read-out: Solubility) 0.34 mg/mL (≈ 0.866 mM). The solubility worked out at 375 mg/mL (≈ 955 mM) (dimethyl sulfoxide, Dimethyl sulfoxide, 25° C., read-out: Solubility); 4.5 mg/mL (≈ 11.5 mM) (ethanol, Ethanol, 25° C., read-out: Solubility); 16.9 mg/mL (≈ 43.1 mM) (ethyl acetate, Ethyl acetate, 25° C., read-out: Solubility); 2.87 mg/mL (≈ 7.31 mM) (isopropanol, Isopropanol, 25° C., read-out: Solubility); 1.98 mg/mL (≈ 5.04 mM) (methanol, Methanol, 25° C., read-out: Solubility); 44.7 mg/mL (≈ 114 mM) (methyl ethyl ketone, Methyl ethyl ketone, 25° C., read-out: Solubility). Besides, the solubility is, setting by setting: (n-heptane, n-Heptane, 25° C., read-out: Solubility) 0.62 mg/mL (≈ 1.58 mM); (tetrahydrofuran, Tetrahydrofuran, 25° C., read-out: Solubility) 26.6 mg/mL (≈ 67.6 mM).
